Results reported in patent EP0373658A2, “Use of quinoline derivatives in treating cancer” (priority 1988, dated 1990).

Experiments:
serum prolactin = experiment: lowering basal serum prolactin levels in the male rat (prolactin secretion inhibition); type: in vivo
Text: Many of the above mentioned compounds are published as prolactin secretion inhibitors, some of which are extremely potent and have long lasting activity. The potency of the compounds as prolactin secretion inhibitors can be determined in standard tests, e.g. by lowering basal serum prolactin levels in the male rat.

operable breast cancer = experiment: Clinical trial II: antiproliferative effect in operable breast cancer; type: in vivo, women; conditions: oral, 20 days, 50 to 200 ug/day/p.o.; compound A 25 µg/day days 0 to 3, 50 µg/day days 4 to 6, 75 µg/day until day 20
Text: 24 to 36 women with operable breast cancer, aged less than 70 years, in whom a positive biopsy cut has been obtained at the first clinic visit are selected. The patients are not be taking any chronic medication which is known to influence serum prolactin levels. The trial is effected on a randomized double blind basis. All patients are to have baseline evaluations before beginning treatment.
The women are given an oral dose of a COMPOUND OF THE INVEN-TION or placebo for 20 days, starting on day 0. They are operated on day 10 with either breast conservation or modified radical mastectomy. Prolactin levels in plasma are measured on days 0, 6, 10, 13 and 20. Histological evaluations are performed on days 1 and 10.

[1] = 52 week toxicology studies in rats; type: in vivo; conditions: oral doses, 0.20 mg/kg/day
[2] = system: 5-HT sensitive adenylate cyclase of the liver fluke; experiment: activation of 5-HT sensitive adenylate cyclase of the liver fluke (method of R. Markstein); type: biochemical; conditions: adenylate cyclase stimulated by serotonin
Text: A group of compounds comprises compounds which are D₂ agonists without any antagonistic activity. Another group of compounds includes those compounds which are serotonin agonists, e.g. as indicated in standard in vitro binding tests and by activation of 5-HT sensitive adenylate cyclase of the liver fluke according to the method of R.Markstein, Neurochemical Effects of Some Ergot Derivatives: A Basis for their Antiparkinson Actions. J. Neural transm 51:39, (1981).
Examples of such compounds include compound C and pergolide. Compound C, pergolide and 5-HT agonists have efficacies of 90, 80, and 100 respectively and pD₂ [10g EC₅₀] of 6.9, 6.9 and 7.7 respectively in this test on adenylate cyclase stimulated by serotonin.

Compound | ID₅₀ mg/kg after 4 hours (serum prolactin) | mitotic rate (operable breast cancer) | toxic effects [1] | efficacies [2] | pD₂ [10g EC₅₀] [2]
CN1C[C@@H](NS(=O)(=O)N(C)C)C[C@@H]2c3cccc4c3c(cn4C)C[C@H]21 [B, 1,6-dimethyl-8α-(N,N-dimethylsulphamoylamino)-ergoline-I] | 0.003 mg/kg |  |  |  | 
CCCN1CC(NS(=O)(=O)N(CC)CC)CC2Cc3c(O)cccc3CC21 (stereo not drawn) [Compound A, N,N-diethyl-N′-[(3α,4aα,10aβ)-1,2,3,4,4a,5,10,10a-octahydro-6-hydroxy-1-propyl-3-benzo[g]-quinolinyl] sulfamide] | 0.03 mg/kg | satisfactory results indicative of a reduced mitotic rate | no toxic effects are observed |  | 
CCCN1C[C@@H](NS(=O)(=O)N(CC)CC)C[C@@H]2c3cccc4[nH]cc(c34)C[C@H]21 [Compound C, 6-n-propyl-8α-(N,N-diethylsulphamoylamino)-ergoline-I] | 0.001 mg/kg |  |  | 90 | 6.9
CCCN1C[C@H](CSC)C[C@@H]2c3cccc4[nH]cc(c34)C[C@H]21 [pergolide, 6-n-propyl-8α-methylmercaptomethyl-ergoline-I, reference compound] |  |  |  | 80 | 6.9
